From patent US20260258036A1, “INHIBITORS OF HUMAN ALDOSTERONE SYNTHASE (CYP11B2)” («TARGET MEDICALS» LIMITED LIABILITY COMPANY, priority 2022, published 2026)

Target: T1, recombinant CYP11B2 (Homo sapiens, UniProt P19099)
T1 sequence (P19099 25-503): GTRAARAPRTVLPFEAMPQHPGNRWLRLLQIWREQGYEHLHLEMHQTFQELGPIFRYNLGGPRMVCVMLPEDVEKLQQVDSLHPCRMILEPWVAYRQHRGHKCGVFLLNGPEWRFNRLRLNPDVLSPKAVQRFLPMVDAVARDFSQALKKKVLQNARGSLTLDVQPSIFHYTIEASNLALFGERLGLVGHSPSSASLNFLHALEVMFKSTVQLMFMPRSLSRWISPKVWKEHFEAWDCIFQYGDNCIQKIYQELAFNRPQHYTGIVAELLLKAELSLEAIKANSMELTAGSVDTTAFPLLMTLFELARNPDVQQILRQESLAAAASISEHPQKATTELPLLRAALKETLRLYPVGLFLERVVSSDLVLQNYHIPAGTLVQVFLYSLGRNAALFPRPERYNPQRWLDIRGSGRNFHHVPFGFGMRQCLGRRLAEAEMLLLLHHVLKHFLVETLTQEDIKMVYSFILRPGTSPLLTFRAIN
Experiment: Inhibition of CYP11B2 activity in a reconstructed enzyme system (HPLC with UV detector)
Format: biochemical
Conditions: compounds 1_xx; test compound final concentration ≤2 μM; corticosterone substrate; 30 minutes at 37° C.; read-out: Level of CYP11B2 activity inhibition
Experimental: The authors of the present invention investigated the activity of the compounds according to the invention as inhibitors of CYP11 B2 when analyzed in a reconstructed system containing 0.5 μm recombinant CYP1 1B2, 0.3 μm human adrenodoxin reductase, 2 μm human adrenodoxin, 100 μm corticosterone as a control reaction to detect the formation of a product with using an HPLC system with a UV detector. The test compound is added to the reaction mixture to a final concentration of ≤2 μM. The concentrated protein mixture was diluted with buffer to a final volume of 0.5 ml, pre-incubated for 10 min at 37° C., followed by the addition of the substrate. Reactions are initiated by adding NADPH (nicotinamide adenine dinucleotide phosphate) to a final concentration of 0.25 mM with a regenerating system (glucose-6-phosphate and glucose-6-phosphate dehydrogenase) in 25 mM potassium phosphate buffer, pH 7.4, containing 0.1 mM DTT (dithiothreitol), 0.1% Tween-20.4 mM MgCl2 and incubated at 37° C. After 30 minutes of incubation, the reaction is stopped by adding 5 ml of dichloromethane. The organic phase is isolated by centrifugation, evaporation, dissolution in ethanol and transferred to a vial for HPLC studies. A C18 Luna 100 Å 250×4, 6 mm column was used on an Agilent Technologies 1200 series instrument (USA) with ethanol as the mobile phase.
Activity (a) is calculated as the amount of product in nmol per minute per 1 nmol of CYP.
where k is the correction factor (k=1 is used as the molar extinction coefficients of steroid substrates and products similar at a detection wavelength of 254 nm), As is the peak area of the substrate, cs is the concentration of the substrate, Ap is the peak area of the product, ce is the concentration of CYP (cytochrome P450), t is the reaction time.
The level of inhibition of CYP11 B2 activity is expressed as a percentage, where 0% is defined as no inhibition in reactions without test compound and 100% is absolute inhibition by test compound.

Q: With `COc1c(C)cc(S(=O)(=O)n2ccc3c(-c4ccc(C)cn4)cncc32)cc1C` [Compound 1_01, 1-(4-methoxy-3,5-dimethylphenyl)sulfonyl-4-(5-methyl-2-pyridyl)pyrrolo[2,3-c]pyridine] as the compound, how does the inhibition at 2 µM read?
A: 50 to 100%

Q: With `COc1c(C)cc(S(=O)(=O)n2ccc3c(-c4cnc(C)cn4)cncc32)cc1C` [Compound 1_02, 1-((4-methoxy-3,5-dimethylphenyl)sulfonyl)-4-(5-methylpyrazin-2-yl)-1H-pyrrolo[2,3-c]pyridine] as the compound, how does the inhibition at 2 µM read?
A: 50 to 100%

Q: Which inhibition at 2 µM does the source give for `COc1c(C)cc(S(=O)(=O)n2ccc3c(-c4ncc(C)cn4)cncc32)cc1C` [Compound 1_03, 1-((4-methoxy-3,5-dimethylphenyl)sulfonyl)-4-(5-methylpyrimidin-2-yl)-1H-pyrrolo[2,3-c]pyridine] here?
A: 50 to 100%

Q: For `COc1c(C)cc(S(=O)(=O)n2ccc3c(-c4ccc(C)nn4)cncc32)cc1C` [Compound 1_04, 1-(4-methoxy-3,5-dimethylphenyl)sulfonyl-4-(6-methylpyridazin-3-yl)pyrrolo[2,3-c]pyridine], which inhibition at 2 µM is on record?
A: 50 to 100%

Q: Which inhibition at 2 µM does the source give for `COc1c(C)cc(S(=O)(=O)n2ccc3c(-c4ccc(S(C)(=O)=O)cn4)cncc32)cc1C` [Compound 1_05, 1-(4-methoxy-3,5-dimethylphenyl)sulfonyl-4-(5-methylsulfonyl-2-pyridyl)pyrrolo[2,3-c]pyridine] here?
A: 20 to 100%

Q: For `CC(C)Oc1c(F)cc(S(=O)(=O)n2ccc3c(-c4ccccn4)cncc32)cc1F` [Compound 1_06, 1-((3,5-difluoro-4-isopropoxyphenyl)sulfonyl)-4-(pyridin-2-yl)-1H-pyrrolo[2,3-c]pyridine], which inhibition at 2 µM is on record?
A: 50 to 100%

Q: Which inhibition at 2 µM does the source give for `O=S(=O)(c1cc(F)c(OCC2CC2)c(F)c1)n1ccc2c(-c3ccccn3)cncc21` [Compound 1_07, 1-((4-(cyclopropylmethoxy)-3,5-difluorophenyl)sulfonyl)-4-(pyridin-2-yl)-1H-pyrrolo[2,3-c]pyridine] here?
A: 50 to 100%

Q: How did the inhibition at 2 µM turn out when `O=S(=O)(c1cc(F)c(OCC(F)F)c(F)c1)n1ccc2c(-c3ccccn3)cncc21` [Compound 1_08, 1-((4-(2,2-difluoroethoxy)-3,5-difluorophenyl)sulfonyl)-4-(pyridin-2-yl)-1H-pyrrolo[2,3-c]pyridine] was run?
A: 50 to 100%

Q: Which inhibition at 2 µM does the source give for `CN(C)c1c(F)cc(S(=O)(=O)n2ccc3c(-c4ccccn4)cncc32)cc1F` [Compound 1_09, 2,6-difluoro-N,N-dimethyl-4-((4-(pyridin-2-yl)-1H-pyrrolo[2,3-c]pyridin-1-yl)sulfonyl)aniline] here?
A: 50 to 100%

Q: Which inhibition at 2 µM does the source give for `O=S(=O)(c1cc(F)c(N2CCOCC2)c(F)c1)n1ccc2c(-c3ccccn3)cncc21` [Compound 1_10, 4-(2,6-difluoro-4-((4-(pyridin-2-yl)-1H-pyrrolo[2,3-c]pyridin-1-yl)sulfonyl)phenyl)morpholine] here?
A: 50 to 100%

Q: `Nc1c(F)cc(S(=O)(=O)n2ccc3c(-c4ccccn4)cncc32)cc1F` [Compound 1_11, 2,6-difluoro-4-((4-(pyridin-2-yl)-1H-pyrrolo[2,3-c]pyridin-1-yl)sulfonyl)aniline] was tested. Which inhibition at 2 µM did it give?
A: 50 to 100%

Q: Which inhibition at 2 µM does the source give for `CN1CCN(c2c(F)cc(S(=O)(=O)n3ccc4c(-c5ccccn5)cncc43)cc2F)CC1` [Compound 1_12, 1-((3,5-difluoro-4-(4-methylpiperazin-1-yl)phenyl)sulfonyl)-4-(pyridin-2-yl)-1H-pyrrolo[2,3-c]pyridine] here?
A: 50 to 100%

Q: For `O=S(=O)(c1cc(F)c(NC2CC2)c(F)c1)n1ccc2c(-c3ccccn3)cncc21` [Compound 1_13, N-cyclopropyl-2,6-difluoro-4-((4-(pyridin-2-yl)-1H-pyrrolo[2,3-c]pyridin-1-yl)sulfonyl)aniline], which inhibition at 2 µM is on record?
A: 50 to 100%

Q: Which inhibition at 2 µM does the source give for `CN(c1c(F)cc(S(=O)(=O)n2ccc3c(-c4ccccn4)cncc32)cc1F)C1CCC1` [Compound 1_14, N-cyclobutyl-2,6-difluoro-N-methyl-4-((4-(pyridin-2-yl)-1H-pyrrolo[2,3-c]pyridin-1-yl)sulfonyl)aniline] here?
A: 50 to 100%

Q: For `CN(C)c1c(F)cc(S(=O)(=O)N2CCc3c(-c4ccccn4)cncc32)cc1F` [Compound 1_15, 2,6-difluoro-N,N-dimethyl-4-((4-(pyridin-2-yl)-2,3-dihydro-1H-pyrrolo[2,3-c]pyridin-1-yl)sulfonyl)aniline], which inhibition at 2 µM is on record?
A: 20 to 100%

Q: Which inhibition at 2 µM does the source give for `O=S(=O)(c1cc(F)c(O)c(F)c1)N1CCc2c(-c3ccccn3)cncc21` [Compound 1_16, 2,6-difluoro-4-((4-(pyridin-2-yl)-2,3-dehydro-H-pyrrolo[2,3-c]pyridin-1-yl)sulfonyl)phenol] here?
A: 50 to 100%

Q: With `CN1CCN(c2c(F)cc(S(=O)(=O)N3CCc4c(-c5ccccn5)cncc43)cc2F)CC1` [Compound 1_17, 1-((3,5-difluoro-4-(4-methylpiperazin-1-yl)phenyl)sulfonyl)-4-(pyridin-2-yl)-2,3-dihydro-1H-pyrrolo[2,3-c]pyridine] as the compound, how does the inhibition at 2 µM read?
A: 50 to 100%

Q: `COc1c(F)cc(S(=O)(=O)n2ccc3c(-c4ccccn4)cncc32)cc1F` [Compound 1_18, 1-((3,5-difluoro-4-methoxyphenyl)sulfonyl)-4-(pyridin-2-yl)-1H-pyrrolo[2,3-c]pyridine] was tested. Which inhibition at 2 µM did it give?
A: 50 to 100%

Q: With `CC1CN(c2c(F)cc(S(=O)(=O)n3ccc4c(-c5ccccn5)cncc43)cc2F)C1` [Compound 1_19, 1-((3,5-difluoro-4-(3-methylazetidin-1-yl)phenyl)sulfonyl)-4-(pyridin-2-yl)-1H-pyrrolo[2,3-c]pyridine] as the compound, how does the inhibition at 2 µM read?
A: 50 to 100%

Q: With `Cc1csc(N(C)c2c(F)cc(S(=O)(=O)n3ccc4c(-c5ccccn5)cncc43)cc2F)n1` [Compound 1_20, N-(2,6-difluoro-4-((4-(pyridin-2-yl)-1H-pyrrolo[2,3-c]pyridin-1-yl)sulfonyl)phenyl)-N,4-dimethylthiazol-2-amine] as the compound, how does the inhibition at 2 µM read?
A: 50 to 100%

Q: Which inhibition at 2 µM does the source give for `CN1CCC(Nc2c(F)cc(S(=O)(=O)n3ccc4c(-c5ccccn5)cncc43)cc2F)CC1` [Compound 1_21, N-(2,6-difluoro-4-((4-(pyridin-2-yl)-1H-pyrrolo[2,3-c]pyridin-1-yl)sulfonyl)phenyl)-1-methylpiperidin-4-amine] here?
A: 50 to 100%

Q: For `CN(C)CCNc1c(F)cc(S(=O)(=O)n2ccc3c(-c4ccccn4)cncc32)cc1F` [Compound 1_22, N1-(2,6-difluoro-4-((4-(pyridin-2-yl)-1H-pyrrolo[2,3-c]pyridin-1-yl)sulfonyl)phenyl)-N2,N2-dimethylethane-1,2-diamine], which inhibition at 2 µM is on record?
A: 50 to 100%

Q: `O=S(=O)(c1cc(F)c(N2CCSCC2)c(F)c1)n1ccc2c(-c3ccccn3)cncc21` [Compound 1_23, 4-(2,6-difluoro-4-((4-(pyridin-2-yl)-1H-pyrrolo[2,3-c]pyridin-1-yl)sulfonyl)phenyl)thiomorpholine] was tested. Which inhibition at 2 µM did it give?
A: 50 to 100%

Q: For `CN1CC2CN(c3c(F)cc(S(=O)(=O)n4ccc5c(-c6ccccn6)cncc54)cc3F)CC2C1` (stereo not drawn) [Compound 1_24, 1-((3,5-difluoro-4-(5-methylhexahydropyrrolo[3,4-c]pyrrol-2(1H)-yl)phenyl)sulfonyl)-4-(pyridin-2-yl)-1H-pyrrolo [2,3-s]pyridine], which inhibition at 2 µM is on record?
A: 20 to 100%

Q: With `CN1CCC2CN(c3c(F)cc(S(=O)(=O)n4ccc5c(-c6ccccn6)cncc54)cc3F)CC2C1` (stereo not drawn) [Compound 1_25, 1-((3,5-difluoro-4-(5-methyloctahydro-2H-pyrrolo[3,4-c]pyridin-2-yl)phenyl)sulfonyl)-4-(pyridin-2-yl)-1H-pyrrolo[2,3-c]pyridine] as the compound, how does the inhibition at 2 µM read?
A: 50 to 100%

Q: `O=S(=O)(c1cc(F)c(N2CCC3(CCNC3)C2)c(F)c1)n1ccc2c(-c3ccccn3)cncc21` (stereo not drawn) [Compound 1_26, 2-(2,6-difluoro-4-((4-(pyridin-2-yl)-1H-pyrrolo[2,3-c]pyridin-1-yl)sulfonyl)phenyl)-2,7-diazaspiro[4.4]nonane] was tested. Which inhibition at 2 µM did it give?
A: 50 to 100%

Q: `CN1CCN(c2c(F)cc(S(=O)(=O)n3ccc4c(-c5nc(C#N)co5)cncc43)cc2F)CC1` [Compound 1_27, 2-(1-((3,5-difluoro-4-(4-methylpiperazin-1-yl)phenyl)sulfonyl)-1H-pyrrolo[2,3-c]pyridin-4-yl)oxazol-4-carbonitrile] was tested. Which inhibition at 2 µM did it give?
A: 50 to 100%
